# Tests used:
# Assay in all cases: KINOMEscan
# Type in all cases: binding
# MARK1 = MARK1 (Homo sapiens (Human), UniProt Q9P0L2); conditions: MARK1, 10000 nM; read-out: Percent Control
# OSR1 = OSR1 (Homo sapiens (Human), UniProt O95747); conditions: OSR1, 10000 nM; read-out: Percent Control
# EGFR(G719S) = EGFR(G719S) (Homo sapiens (Human), UniProt P00533, G719S); conditions: 10000 nM, read-out: Percent Control
# KIT(D816H) = KIT(D816H) (Homo sapiens (Human), UniProt P10721, D816H); conditions: 10000 nM, read-out: Percent Control
# p38-gamma = p38-gamma (Homo sapiens (Human), UniProt P53778); conditions: 10000 nM, read-out: Percent Control
# TLK1 = TLK1 (Homo sapiens (Human), UniProt Q9UKI8); conditions: TLK1, 10000 nM; read-out: Percent Control
# FGFR3 = FGFR3 (Homo sapiens (Human), UniProt P22607); conditions: FGFR3, 10000 nM; read-out: Percent Control
# STK16 = STK16 (Homo sapiens (Human), UniProt O75716); conditions: STK16, 10000 nM; read-out: Percent Control
# ASK1 = ASK1 (Homo sapiens (Human), UniProt Q99683); conditions: ASK1, 10000 nM; read-out: Percent Control
# AKT3 = AKT3 (Homo sapiens (Human), UniProt Q9Y243); conditions: AKT3, 10000 nM; read-out: Percent Control
# CSNK1G3 = CSNK1G3 (Homo sapiens (Human), UniProt Q9Y6M4); conditions: CSNK1G3, 10000 nM; read-out: Percent Control
# HUNK = HUNK (Homo sapiens (Human), UniProt P57058); conditions: 10000 nM, read-out: Percent Control
# IKK-alpha = IKK-alpha (Homo sapiens (Human), UniProt O15111); conditions: 10000 nM, read-out: Percent Control
# HCK = HCK (Homo sapiens (Human), UniProt P08631); conditions: 10000 nM, read-out: Percent Control
# ERK2 = ERK2 (Homo sapiens (Human), UniProt P28482); conditions: ERK2, 10000 nM; read-out: Percent Control
# MRCKB = MRCKB (Homo sapiens (Human), UniProt Q9Y5S2); conditions: 10000 nM, read-out: Percent Control
# MRCKA = MRCKA (Homo sapiens (Human), UniProt Q5VT25); conditions: 10000 nM, read-out: Percent Control
# LOK = LOK (Homo sapiens (Human), UniProt O94804); conditions: 10000 nM, read-out: Percent Control
# MYO3A = MYO3A (Homo sapiens (Human), UniProt Q8NEV4); conditions: 10000 nM, read-out: Percent Control
# AURKC = AURKC (Homo sapiens (Human), UniProt Q9UQB9); conditions: 10000 nM, read-out: Percent Control
# [1] = molecular target: RSK1(Kin.Dom.2-C-terminal) (Homo sapiens (Human), UniProt Q15418); conditions: 10000 nM, read-out: Percent Control
# EPHB1 = EPHB1 (Homo sapiens (Human), UniProt P54762); conditions: EPHB1, 10000 nM; read-out: Percent Control
# MLK3 = MLK3 (Homo sapiens (Human), UniProt Q16584); conditions: MLK3, 10000 nM; read-out: Percent Control
# CDC2L5 = CDC2L5 (Homo sapiens (Human), UniProt Q14004); conditions: CDC2L5, 10000 nM; read-out: Percent Control
# Experimental: (§1) Selectivity profiling of compound 3 among a panel of kinases was performed with KINOMEscan® as set forth below. The KINOMEscan® screening platform employs an active site-directed competition binding assay to quantitatively measure interactions between a test compound, e.g., compound 3, and more than 450 kinases and disease-relevant mutant variants.
# (§2) Screening of compound 3 was conducted at a concentration of 10 μM by Eurofins DiscoverX. Activity is measured as the ability of compound 3 to displace the kinase from a solid support relative to a negative control (i.e., DMSO). The output is % control.
# PRP4 = PRP4 (Homo sapiens (Human), UniProt Q13523); conditions: PRP4, 10000 nM; read-out: Percent Control
# Experimental: as §1, §2
# BRK = BRK (Homo sapiens (Human), UniProt Q13882); conditions: 10000 nM, read-out: Percent Control
# TGFBR1 = TGFBR1 (Homo sapiens (Human), UniProt P36897); conditions: TGFBR1, 10000 nM; read-out: Percent Control
# CLK1 = CLK1 (Homo sapiens (Human), UniProt P49759); conditions: CLK1, 10000 nM; read-out: Percent Control
# MEK2 = MEK2 (Homo sapiens (Human), UniProt P36507); conditions: MEK2, 10000 nM; read-out: Percent Control
# CDKL5 = CDKL5 (Homo sapiens (Human), UniProt O76039); conditions: CDKL5, 10000 nM; read-out: Percent Control
# IRAK3 = IRAK3 (Homo sapiens (Human), UniProt Q9Y616); conditions: IRAK3, 10000 nM; read-out: Percent Control
# CAMK2G = CAMK2G (Homo sapiens (Human), UniProt Q13555); conditions: 10000 nM, read-out: Percent Control
# Chain of ASK1 (Q99683 whole entry): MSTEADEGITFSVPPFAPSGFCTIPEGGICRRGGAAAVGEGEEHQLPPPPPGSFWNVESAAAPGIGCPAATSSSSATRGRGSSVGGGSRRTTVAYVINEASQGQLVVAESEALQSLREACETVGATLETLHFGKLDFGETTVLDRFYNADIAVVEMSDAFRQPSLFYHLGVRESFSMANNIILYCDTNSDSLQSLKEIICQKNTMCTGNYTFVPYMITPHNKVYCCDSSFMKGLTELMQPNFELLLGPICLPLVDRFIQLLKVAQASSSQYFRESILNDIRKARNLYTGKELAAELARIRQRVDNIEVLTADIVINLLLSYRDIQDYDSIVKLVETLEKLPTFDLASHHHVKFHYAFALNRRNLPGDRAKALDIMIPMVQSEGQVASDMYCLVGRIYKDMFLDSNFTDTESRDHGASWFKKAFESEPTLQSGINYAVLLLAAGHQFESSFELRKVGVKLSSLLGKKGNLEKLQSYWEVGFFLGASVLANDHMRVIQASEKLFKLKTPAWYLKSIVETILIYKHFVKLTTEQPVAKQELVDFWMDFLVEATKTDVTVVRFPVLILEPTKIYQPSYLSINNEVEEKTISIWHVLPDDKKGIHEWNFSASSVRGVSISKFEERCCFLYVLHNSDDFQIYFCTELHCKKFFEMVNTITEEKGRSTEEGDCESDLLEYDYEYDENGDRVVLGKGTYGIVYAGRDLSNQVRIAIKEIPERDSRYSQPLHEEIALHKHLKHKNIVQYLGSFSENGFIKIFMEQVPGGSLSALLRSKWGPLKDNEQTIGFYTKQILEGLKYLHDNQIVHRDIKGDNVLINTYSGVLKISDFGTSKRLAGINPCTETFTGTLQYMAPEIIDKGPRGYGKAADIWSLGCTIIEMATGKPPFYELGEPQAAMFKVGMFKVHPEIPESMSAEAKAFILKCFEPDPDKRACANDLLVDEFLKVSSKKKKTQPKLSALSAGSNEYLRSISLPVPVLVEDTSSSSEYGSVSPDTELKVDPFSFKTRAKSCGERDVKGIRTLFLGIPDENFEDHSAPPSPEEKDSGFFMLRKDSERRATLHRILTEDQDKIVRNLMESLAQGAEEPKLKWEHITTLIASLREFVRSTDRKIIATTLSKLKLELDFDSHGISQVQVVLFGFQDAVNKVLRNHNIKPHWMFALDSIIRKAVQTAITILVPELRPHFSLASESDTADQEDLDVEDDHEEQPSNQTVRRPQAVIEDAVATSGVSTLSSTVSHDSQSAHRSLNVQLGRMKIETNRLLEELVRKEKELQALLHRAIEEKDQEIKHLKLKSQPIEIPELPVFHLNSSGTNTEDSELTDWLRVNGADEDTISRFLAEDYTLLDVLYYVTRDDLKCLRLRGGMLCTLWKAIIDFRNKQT
# Chain of LOK (O94804 whole entry): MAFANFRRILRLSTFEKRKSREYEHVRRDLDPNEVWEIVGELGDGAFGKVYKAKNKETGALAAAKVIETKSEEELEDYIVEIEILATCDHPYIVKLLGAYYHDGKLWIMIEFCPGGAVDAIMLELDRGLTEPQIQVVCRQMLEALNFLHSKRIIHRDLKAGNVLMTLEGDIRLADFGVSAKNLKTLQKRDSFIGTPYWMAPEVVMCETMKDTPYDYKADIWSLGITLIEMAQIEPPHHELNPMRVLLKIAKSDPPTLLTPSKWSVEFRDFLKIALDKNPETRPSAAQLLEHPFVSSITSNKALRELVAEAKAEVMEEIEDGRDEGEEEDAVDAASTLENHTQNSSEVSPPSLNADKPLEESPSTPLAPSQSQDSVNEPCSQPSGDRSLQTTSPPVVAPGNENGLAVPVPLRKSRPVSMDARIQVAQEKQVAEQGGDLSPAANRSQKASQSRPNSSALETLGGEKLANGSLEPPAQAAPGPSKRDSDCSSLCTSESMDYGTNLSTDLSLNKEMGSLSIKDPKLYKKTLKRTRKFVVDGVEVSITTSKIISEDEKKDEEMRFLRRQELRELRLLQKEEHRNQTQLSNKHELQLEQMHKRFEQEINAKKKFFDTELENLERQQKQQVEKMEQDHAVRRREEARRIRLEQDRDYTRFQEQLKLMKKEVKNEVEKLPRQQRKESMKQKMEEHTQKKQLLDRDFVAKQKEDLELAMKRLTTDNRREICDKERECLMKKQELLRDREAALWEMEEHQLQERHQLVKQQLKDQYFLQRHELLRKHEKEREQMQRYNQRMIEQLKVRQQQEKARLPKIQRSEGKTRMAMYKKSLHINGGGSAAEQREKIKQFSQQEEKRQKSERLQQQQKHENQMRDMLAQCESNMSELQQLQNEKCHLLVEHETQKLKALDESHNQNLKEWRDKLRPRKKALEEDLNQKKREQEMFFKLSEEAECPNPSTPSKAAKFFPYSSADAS
# Chain of STK16 (O75716 whole entry): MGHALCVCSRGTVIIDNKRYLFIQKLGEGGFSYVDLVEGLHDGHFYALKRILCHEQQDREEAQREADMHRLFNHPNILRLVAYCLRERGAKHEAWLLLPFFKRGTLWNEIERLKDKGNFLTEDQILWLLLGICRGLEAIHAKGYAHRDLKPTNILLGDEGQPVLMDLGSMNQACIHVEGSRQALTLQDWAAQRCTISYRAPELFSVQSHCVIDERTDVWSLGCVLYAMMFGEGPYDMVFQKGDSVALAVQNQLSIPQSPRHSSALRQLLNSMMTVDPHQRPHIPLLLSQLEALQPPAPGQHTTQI
# Chain of HCK (P08631 whole entry): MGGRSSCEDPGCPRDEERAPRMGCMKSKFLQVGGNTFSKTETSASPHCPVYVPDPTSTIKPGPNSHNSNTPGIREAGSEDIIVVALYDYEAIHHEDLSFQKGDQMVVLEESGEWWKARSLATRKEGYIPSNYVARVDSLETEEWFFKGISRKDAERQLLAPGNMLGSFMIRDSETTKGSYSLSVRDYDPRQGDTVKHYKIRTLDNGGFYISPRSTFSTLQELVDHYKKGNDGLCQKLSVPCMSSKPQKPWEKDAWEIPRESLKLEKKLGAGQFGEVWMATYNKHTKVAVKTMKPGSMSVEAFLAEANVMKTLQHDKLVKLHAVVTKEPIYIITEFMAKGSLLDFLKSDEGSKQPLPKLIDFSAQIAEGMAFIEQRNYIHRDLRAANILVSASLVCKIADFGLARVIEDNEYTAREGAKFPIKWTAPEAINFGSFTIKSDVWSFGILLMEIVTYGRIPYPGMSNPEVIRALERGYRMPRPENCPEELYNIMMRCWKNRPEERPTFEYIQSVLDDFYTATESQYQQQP
# Chain of IKK-alpha (O15111 whole entry): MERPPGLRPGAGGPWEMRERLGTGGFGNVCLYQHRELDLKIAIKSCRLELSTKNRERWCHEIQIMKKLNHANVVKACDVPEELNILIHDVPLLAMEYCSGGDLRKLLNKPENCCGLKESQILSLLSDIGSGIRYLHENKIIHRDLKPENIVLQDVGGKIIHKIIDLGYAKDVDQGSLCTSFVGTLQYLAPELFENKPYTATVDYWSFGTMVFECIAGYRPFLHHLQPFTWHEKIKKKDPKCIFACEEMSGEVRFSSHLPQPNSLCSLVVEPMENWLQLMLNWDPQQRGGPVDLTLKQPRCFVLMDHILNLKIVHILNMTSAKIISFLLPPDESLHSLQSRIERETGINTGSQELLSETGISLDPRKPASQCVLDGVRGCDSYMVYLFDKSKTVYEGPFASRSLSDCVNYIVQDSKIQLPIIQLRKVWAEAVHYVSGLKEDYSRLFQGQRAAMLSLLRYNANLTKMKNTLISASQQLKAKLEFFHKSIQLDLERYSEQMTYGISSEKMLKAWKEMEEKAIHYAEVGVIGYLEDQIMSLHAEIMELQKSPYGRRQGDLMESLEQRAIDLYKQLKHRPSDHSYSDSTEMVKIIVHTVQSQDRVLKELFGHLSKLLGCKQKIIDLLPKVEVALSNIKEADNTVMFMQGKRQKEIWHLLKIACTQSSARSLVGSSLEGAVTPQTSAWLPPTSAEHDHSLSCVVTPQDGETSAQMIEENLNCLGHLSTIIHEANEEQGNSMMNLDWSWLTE
# Chain of BRK (Q13882 whole entry): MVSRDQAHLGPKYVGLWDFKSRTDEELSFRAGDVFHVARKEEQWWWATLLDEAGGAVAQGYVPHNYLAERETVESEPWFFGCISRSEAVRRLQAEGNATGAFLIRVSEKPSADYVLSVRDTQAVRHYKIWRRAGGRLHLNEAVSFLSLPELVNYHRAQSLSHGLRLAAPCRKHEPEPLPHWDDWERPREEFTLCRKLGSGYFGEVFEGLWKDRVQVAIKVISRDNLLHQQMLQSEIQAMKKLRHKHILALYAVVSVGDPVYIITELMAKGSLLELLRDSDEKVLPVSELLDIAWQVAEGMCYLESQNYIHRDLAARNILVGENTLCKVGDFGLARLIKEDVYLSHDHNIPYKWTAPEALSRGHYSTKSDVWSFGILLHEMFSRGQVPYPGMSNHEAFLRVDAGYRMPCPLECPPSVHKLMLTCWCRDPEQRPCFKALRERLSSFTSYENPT
# Chain of AKT3 (Q9Y243 whole entry): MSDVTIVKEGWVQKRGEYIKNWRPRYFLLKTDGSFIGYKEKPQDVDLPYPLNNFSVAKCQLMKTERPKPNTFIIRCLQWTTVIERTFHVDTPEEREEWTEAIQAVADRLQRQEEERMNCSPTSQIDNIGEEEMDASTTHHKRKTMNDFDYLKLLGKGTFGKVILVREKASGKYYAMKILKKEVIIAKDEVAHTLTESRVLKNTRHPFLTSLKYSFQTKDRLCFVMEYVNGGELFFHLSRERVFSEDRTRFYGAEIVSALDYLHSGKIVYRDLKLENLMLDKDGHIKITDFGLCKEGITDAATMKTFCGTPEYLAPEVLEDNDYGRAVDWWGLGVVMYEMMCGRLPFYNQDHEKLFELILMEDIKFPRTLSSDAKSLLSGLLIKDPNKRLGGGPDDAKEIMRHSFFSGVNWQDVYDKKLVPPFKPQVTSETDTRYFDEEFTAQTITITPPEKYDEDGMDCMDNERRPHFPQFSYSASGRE
SMILES,remaining binding at 10 µM (MARK1),remaining binding at 10 µM (OSR1),remaining binding at 10 µM (EGFR(G719S)),remaining binding at 10 µM (KIT(D816H)),remaining binding at 10 µM (p38-gamma),remaining binding at 10 µM (TLK1),remaining binding at 10 µM (FGFR3),remaining binding at 10 µM (STK16),remaining binding at 10 µM (ASK1),remaining binding at 10 µM (AKT3),remaining binding at 10 µM (CSNK1G3),remaining binding at 10 µM (HUNK),remaining binding at 10 µM (IKK-alpha),remaining binding at 10 µM (HCK),remaining binding at 10 µM (ERK2),remaining binding at 10 µM (MRCKB),remaining binding at 10 µM (MRCKA),remaining binding at 10 µM (LOK),remaining binding at 10 µM (MYO3A),remaining binding at 10 µM (AURKC),other results
"COc1cc(N2CCC(N3CCN(C)CC3)CC2)ccc1Nc1ncc2c(n1)N(C)c1sc(C)nc1C(=O)N2 [Compound 3, 6-((2-methoxy-4-(4-(4-methylpiperazin-1-yl)piperidin-1-yl)phenyl)amino)-2,4-dimethyl-4,9-dihydro-10H-pyrimido[5,4-b]thiazolo[5,4-e][1,4]diazepin-10-one]",87%,100%,48%,22%,67%,90%,92%,81%,74%,100%,87%,95%,100%,69%,60%,100%,98%,84%,79%,95%,remaining binding at 10 µM [1]: 81%; remaining binding at 10 µM (EPHB1): 48%; remaining binding at 10 µM (MLK3): 73%; remaining binding at 10 µM (CDC2L5): 100%; remaining binding at 10 µM (PRP4): 100%; remaining binding at 10 µM (BRK): 66%; remaining binding at 10 µM (TGFBR1): 88%; remaining binding at 10 µM (CLK1): 90%; remaining binding at 10 µM (MEK2): 100%; remaining binding at 10 µM (CDKL5): 97%; remaining binding at 10 µM (IRAK3): 80%; remaining binding at 10 µM (CAMK2G): 79%
"COc1cc(N2CCC(N3CCN(C)CC3)CC2)ccc1Nc1ncc2c(n1)N(C)c1sc(C)nc1C(=O)N2C [Compound 5, 6-((2-methoxy-4-(4-(4-methylpiperazin-1-yl)piperidin-1-yl)phenyl)amino)-2,4,9-trimethyl-4,9-dihydro-10H-pyrimido[5,4-b]thiazolo[5,4-e][1,4]diazepin-10-one]",89%,100%,100%,100%,95%,81%,98%,100%,88%,100%,100%,97%,100%,95%,98%,100%,84%,99%,100%,100%,remaining binding at 10 µM [1]: 55%; remaining binding at 10 µM (EPHB1): 93%; remaining binding at 10 µM (MLK3): 100%; remaining binding at 10 µM (CDC2L5): 100%; remaining binding at 10 µM (PRP4): 100%; remaining binding at 10 µM (BRK): 100%; remaining binding at 10 µM (TGFBR1): 100%; remaining binding at 10 µM (CLK1): 100%; remaining binding at 10 µM (MEK2): 99%; remaining binding at 10 µM (CDKL5): 100%; remaining binding at 10 µM (IRAK3): 99%; remaining binding at 10 µM (CAMK2G): 97%

# — patent publication US12365696B2, “Small-molecule focal adhesion kinase (FAK) inhibitors” (DANA-FARBER CANCER INSTITUTE, INC., priority 2019, dated 2025)
